Data as given in ChEMBL document CHEMBL1201862, “PubChem BioAssay data set” (2004).
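Where inhibition never reached the appropriate level, the endpoint shown equals the highest concentration tested. Otherwise, values were interpolated linearly from a five-concentration, 48-hour dose response in 96-well plates. Abbreviation: GI50, concentration required for 50% inhibition of growth.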 Calls of active or inactive are those of the source. Rule as the data show it: active = GI50 up to about 1.1 µM and inactive = higher.

Experiments:
Experiment in all cases: DTP human tumour cell line panel, 48 h
IGROV-1 = test system: IGROV-1
DU-145 = test system: DU-145
M14 = test system: M14
HT-29 = test system: HT-29
OVCAR-4 = test system: OVCAR-4
NCI-H460 = test system: NCI-H460
HCC 2998 = test system: HCC 2998
RXF 393 = test system: RXF 393
MCF7 = test system: MCF7
SNB-19 = test system: SNB-19
UACC-62 = test system: UACC-62
SK-MEL-5 = test system: SK-MEL-5
MDA-MB-231 = test system: MDA-MB-231
SK-OV-3 = test system: SK-OV-3
SF-295 = test system: SF-295
TK-10 = test system: TK-10
PC-3 = test system: PC-3
HCT-116 = test system: HCT-116
UACC-257 = test system: UACC-257
SNB-75 = test system: SNB-75
OVCAR-5 = test system: OVCAR-5
CAKI-1 = test system: CAKI-1
MDA-MB-435 = test system: MDA-MB-435
HCT-15 = test system: HCT-15
EKVX = test system: EKVX
SK-MEL-28 = test system: SK-MEL-28
T47D = test system: T47D
NCI/ADR-RES = test system: NCI/ADR-RES
Malme-3M = test system: Malme-3M
OVCAR-8 = test system: OVCAR-8
UO-31 = test system: UO-31
786-0 = test system: 786-0
U-251 = test system: U-251
ACHN = test system: ACHN
BT-549 = test system: BT-549
KM12 = test system: KM12
MOLT-4 = test system: MOLT-4
OVCAR-3 = test system: OVCAR-3
COLO 205 = test system: COLO 205
K562 = test system: K562
Hs-578T = test system: Hs-578T
RPMI-8226 = test system: RPMI-8226
CCRF-CEM = test system: CCRF-CEM
SK-MEL-2 = test system: SK-MEL-2
A549 = test system: A549
SN12C = test system: SN12C
SF-268 = test system: SF-268
NCI-H226 = test system: NCI-H226
NCI-H23 = test system: NCI-H23
MDA-N = test system: MDA-N
HOP-62 = test system: HOP-62
SW-620 = test system: SW-620
LOX IMVI = test system: LOX IMVI
SR = test system: SR
SF-539 = test system: SF-539
HL-60 = test system: HL-60
NCI-H522 = test system: NCI-H522
A498 = test system: A498
HOP-92 = test system: HOP-92

Measured: GI50

COc1ccc(/C=N/NC(=O)c2cnc3[nH]c(=O)n(C)c(=O)c3c2)cc1
> 100 µM: HCT-15
inactive: IGROV-1 34.9 µM | DU-145 > 100 µM | M14 > 100 µM | HT-29 > 100 µM | OVCAR-4 > 100 µM | NCI-H460 > 100 µM | HCC 2998 > 100 µM | RXF 393 38.3 µM | MCF7 > 100 µM | SNB-19 34.1 µM | UACC-62 80.2 µM | SK-MEL-5 > 100 µM | MDA-MB-231 27 µM | SK-OV-3 59.2 µM | SF-295 46.3 µM | TK-10 46.5 µM | PC-3 > 100 µM | HCT-116 57.5 µM | UACC-257 > 100 µM | SNB-75 13.1 µM | OVCAR-5 > 100 µM | CAKI-1 94.8 µM | MDA-MB-435 > 100 µM | EKVX > 100 µM | SK-MEL-28 > 100 µM | T47D > 100 µM | NCI/ADR-RES 97.3 µM | Malme-3M > 100 µM | OVCAR-8 40.6 µM | UO-31 > 100 µM | 786-0 34.4 µM | U-251 36.7 µM | ACHN 44 µM | BT-549 > 100 µM | KM12 > 100 µM | MOLT-4 > 100 µM | OVCAR-3 > 100 µM | COLO 205 > 100 µM | K562 > 100 µM | Hs-578T 39.9 µM | RPMI-8226 > 100 µM | CCRF-CEM > 100 µM | SK-MEL-2 44.3 µM | A549 > 100 µM | SN12C 88.3 µM | SF-268 45.2 µM | NCI-H226 64.1 µM | NCI-H23 > 100 µM | MDA-N > 100 µM | HOP-62 44.3 µM | SW-620 > 100 µM

C=CCOCn1ccc(=O)[nH]c1=O
> 100 µM: HCT-15
inactive: IGROV-1 > 100 µM | DU-145 > 100 µM | M14 > 100 µM | HT-29 > 100 µM | LOX IMVI > 100 µM | NCI-H460 > 100 µM | HCC 2998 > 100 µM | SR > 100 µM | MCF7 > 100 µM | SNB-19 > 100 µM | UACC-62 > 100 µM | SF-539 > 100 µM | SK-MEL-5 > 100 µM | MDA-MB-231 > 100 µM | HL-60 > 100 µM | SK-OV-3 > 100 µM | SF-295 > 100 µM | TK-10 > 100 µM | PC-3 > 100 µM | HCT-116 > 100 µM | UACC-257 > 100 µM | SNB-75 > 100 µM | CAKI-1 > 100 µM | MDA-MB-435 > 100 µM | EKVX > 100 µM | SK-MEL-28 > 100 µM | T47D > 100 µM | Malme-3M 94.4 µM | OVCAR-8 > 100 µM | UO-31 > 100 µM | 786-0 > 100 µM | ACHN > 100 µM | BT-549 > 100 µM | KM12 > 100 µM | MOLT-4 > 100 µM | NCI-H522 > 100 µM | COLO 205 > 100 µM | K562 > 100 µM | Hs-578T > 100 µM | RPMI-8226 > 100 µM | CCRF-CEM > 100 µM | A549 > 100 µM | SN12C > 100 µM | SF-268 > 100 µM | NCI-H226 > 100 µM | NCI-H23 > 100 µM | A498 > 100 µM | MDA-N > 100 µM | HOP-62 > 100 µM | SW-620 > 100 µM

CN(C)c1ccc2c(SCC(=O)OCC(=O)[C@@]3(O)CC[C@H]4[C@@H]5CCC6=CC(=O)C=C[C@]6(C)[C@H]5C(=O)C[C@@]43C)c3ccc(N(C)C)cc3nc2c1
3.3 µM: HCT-15
inactive: IGROV-1 6.52 µM | DU-145 11.5 µM | M14 27.8 µM | HT-29 2.02 µM | OVCAR-4 10.9 µM | LOX IMVI 26.7 µM | NCI-H460 3.24 µM | HCC 2998 6 µM | RXF 393 32.7 µM | SR 1.35 µM | MCF7 7.03 µM | SNB-19 23.7 µM | UACC-62 10.8 µM | SF-539 6.19 µM | SK-MEL-5 15 µM | MDA-MB-231 27.5 µM | HL-60 1.24 µM | SK-OV-3 27.4 µM | SF-295 14 µM | TK-10 16.3 µM | PC-3 20.8 µM | HCT-116 2.82 µM | UACC-257 15.7 µM | SNB-75 20.6 µM | OVCAR-5 32.1 µM | CAKI-1 23.6 µM | MDA-MB-435 17 µM | EKVX 18.1 µM | SK-MEL-28 21.6 µM | T47D 17.4 µM | Malme-3M > 100 µM | OVCAR-8 8.11 µM | HOP-92 30.7 µM | UO-31 10.3 µM | 786-0 4.16 µM | U-251 15 µM | ACHN 4.53 µM | BT-549 9.59 µM | KM12 6.5 µM | MOLT-4 2.65 µM | OVCAR-3 5.24 µM | NCI-H522 21.8 µM | COLO 205 5.79 µM | K562 2.64 µM | Hs-578T > 100 µM | RPMI-8226 14.6 µM | CCRF-CEM 1.35 µM | SK-MEL-2 24.5 µM | A549 15.2 µM | SN12C 7.01 µM | SF-268 5.82 µM | NCI-H226 14.8 µM | NCI-H23 16.7 µM | A498 > 54.3 µM | MDA-N 14.4 µM | HOP-62 57.9 µM | SW-620 6.19 µM
